“And” between values parts separate entries of the source, which are not always exact repeats. Equal values may be shown once. Read-outs that look alike come from different tables or passages of the source.
Columns and labels:
[1] = cited from earlier work
[2] = test system: carrageenan-induced mouse paw edema; assay: Carrageenan-induced mouse paw edema; type: in vivo; conditions: i.p., 0.028 mmol/kg, paw weight after 3.5 h; for inhibition in vivo at 28 µmol/kg: Mus musculus, ip, 3.5 h
Procedure: All tested compounds were administrated through i.p. with a molar concentration of 0.028 mmol/kg.
The animals were weighed and then randomly divided into control, standard and test groups with each group including 10 mice. […] Edema was induced by injecting 0.1 mL of 1% aqueous solution of carrageenan subcutaneously to the sub-plantar region of the right hind paw, utilizing the left paw as control. The assessed derivatives, in suspended water/Tween-80, were injected i.p. […] After 3.5 h, the hind paws were excised and were weighed separately. The edema paws were estimated as paw weight increase.

ovine COX-1 = target: T1, ovine COX-1 (Ovis aries, UniProt P05979); assay: COX-1 inhibition (Cayman COX Inhibitor Screening Assay); type: biochemical; conditions: for IC50: read-out: COX-1 Inhibition, IC50 (μΜ)
T1 construct: purchased Cayman Chemical Co., Ann Arbor, MI, USA
T1 sequence (P05979 25-600): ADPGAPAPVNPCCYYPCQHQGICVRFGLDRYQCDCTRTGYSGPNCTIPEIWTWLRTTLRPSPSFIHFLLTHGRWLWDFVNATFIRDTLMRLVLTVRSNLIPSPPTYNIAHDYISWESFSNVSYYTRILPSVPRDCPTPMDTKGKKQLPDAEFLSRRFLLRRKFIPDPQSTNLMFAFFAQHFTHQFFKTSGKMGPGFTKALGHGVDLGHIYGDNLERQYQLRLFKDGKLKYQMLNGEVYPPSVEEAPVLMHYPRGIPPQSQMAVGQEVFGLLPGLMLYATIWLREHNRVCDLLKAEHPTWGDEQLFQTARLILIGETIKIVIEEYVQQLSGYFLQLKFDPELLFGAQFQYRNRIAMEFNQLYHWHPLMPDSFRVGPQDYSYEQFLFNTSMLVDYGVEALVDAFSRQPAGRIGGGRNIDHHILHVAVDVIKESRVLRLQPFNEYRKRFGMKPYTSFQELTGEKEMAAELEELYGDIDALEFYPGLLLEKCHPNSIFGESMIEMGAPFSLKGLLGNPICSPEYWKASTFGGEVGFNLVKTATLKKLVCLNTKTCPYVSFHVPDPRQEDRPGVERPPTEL
Procedure: (§1) κ-Carrageenan and lipoxygenase type I-B from soybean were obtained from Sigma (St. Louis, MO, USA). COX inhibition was studied utilizing the kit of “COX Inhibitor Screening Assay” (Cayman Chemical Co., Ann Arbor, MI, USA).
(§2) The action of the tested derivatives on COX-1 and COX-2 inhibition was analyzed utilizing a commercial kit furnished by Cayman (Cayman Chemical Co., Ann Arbor, MI, USA) and by applying the instructions of the manufacturer. The kit utilizes human recombinant COX-2 and ovine COX-1 enzymes. […] The assay analyzes PGF2a produced by SnCl2 reduction of COX-derived PGH2.

MRC-5 cells = assay: Cytotoxicity / cell proliferation in MRC-5 cells; type: cell-based, human; conditions: MRC-5 cells, 0.1, 1 and 10 μM, 48 h
Procedure: The evaluation of cellular cytotoxicity of derivatives 3, 4, 10, 11 and 14 in normal human MRC-5 cells was accomplished at three different concentrations in cell culture, i.e., 0.1, 1 and 10 μM (Figure 7). No substantial effect on cell proliferation after 48 h of exposure was found in cultures, as the growth was ≥98% for all assessed agents by comparison with the control (untreated cells) (Figure 7).
The MRC-5 human cell line from lung fibroblast was stored and then utilized in our laboratory in a conventional manner (passage < 40). MRC-5 cells were cultured (using a humidified atmosphere enclosing 5% CO2 at 37 °C) in medium DMEM with 10% v/v FBS, 1% PS penicillin–streptomycin. The assessed derivatives were dissolved in dimethyl sulfoxide and stored at a temperature of 4 degrees centigrade. For cytotoxicity assessment, cells were seeded in 96-well culture plates at 5 × 10^4 cells/mL (initial density) and permitted to attach for at least 3 h before adding the compounds at increasing concentrations (0.1, 1 and 10 µM). […] To evaluate the cytotoxicity of each derivative, the cells were given an additional 48 h to grow before estimating their number in culture utilizing the Neubauer counting chamber (microscope observation). In every treated culture, cell growth was expressed and reported as the percentage of untreated growing cells. GraphPad Prism 6.0 program was utilized in order to accomplish statistical t-test analysis.
Figure 7 Cell proliferation assessment of MRC-5 cell lines subjected to different derivatives in cell culture. MRC-5 cell lines grown in culture were incubated separately with each of the derivatives at concentrations of 0.1, 1 and 10 μM for 48 h. The cell number was analyzed in cell cultures with microscopic techniques (Neubauer counting chamber), as reported in “Methods” and expressed as % of the proliferation of cultures involving control untreated cells. […] The diagram illustrated above and the t-test statistical analysis were performed utilizing the GraphPad Prism 6.0 program. No significant statistical difference between the control untreated culture cells with each tested derivative was attained.

soybean LOX = test system: T2, soybean LOX; assay: LOX activity inhibition; type: biochemical
T2 construct: purchased Sigma (St. Louis, MO, USA)
From the text: κ-Carrageenan and lipoxygenase type I-B from soybean were obtained from Sigma (St. Louis, MO, USA). COX inhibition was studied utilizing the kit of “COX Inhibitor Screening Assay” (Cayman Chemical Co., Ann Arbor, MI, USA). In vivo tests, male and female (23–30 g) mice R”’ were stored in the Centre of the School of Veterinary Medicine (EL54-BIO42), (Aristotle University of Thessaloniki, Thessaloniki, Greek), licensed by the state official veterinary authorities (presidential degree 56/2013, in standardization with the European Directive 2010/63/EEC). The experimental protocols were approved by the Committee of Animal Ethics of the Prefecture of Central Macedonia (no. 270079/2500).
The reaction mixture contained the final concentration (300 µΜ) of the test derivatives, dissolved in absolute ethanol (10–300 µM), or the solvent (control), soybean LOX, dissolved in 0.9% NaCl solution (250 u/mL) and sodium linoleate (100 µM), in Tris–HCl buffer, pH 9.0. The reaction was monitored for 7 min at a temperature of 28 °C, noting the absorbance (234 nm) of a conjugated diene structure, following the formation of 13-hydroperoxy-linoleic acid. The performance of the assay was validated utilizing NDGA as a standard. For the evaluation of the inhibition type, the above experiments were repeated, utilizing sodium linoleate (1 mM), which is greater than the saturating substrate concentration.

gastric mucosa = assay: Ulcerogenic activity (gastric lesions after oral dosing); type: in vivo; conditions: mice, oral 0.028 mmol/kg, 3 successive days, N = 5
Procedure: Gastric toxicity was conducted through oral administration of 0.028 mmol/kg of the tested derivatives on mice, and the extent of lesions of the gastric mucosa was measured. […] This study clearly indicated the superiority of our compounds over indomethacin concerning ulcerogenic liability.
The ulcerogenicity effect of compounds was assessed on male mice by following the reported protocol. Male mice weighing 22–25 g were separated into six groups (five animals in each group). […] The placebo control group was administrated saline with few drops of Tween-80. The animals were sacrificed 4 h after the last dose, and the stomachs were inspected for stomach lesions. The scoring of ulcerogenicity was expressed in terms of: average number of ulcers per stomach, percentage incidence of ulcers and percent incidence of ulcer divided by 10. The ulcer index was calculated using the sum of the three above values.

human recombinant COX-2 = test system: T3, human recombinant COX-2; assay: COX-2 inhibition (Cayman COX Inhibitor Screening Assay); type: biochemical
T3 construct: purchased Cayman Chemical Co., Ann Arbor, MI, USA
Procedure: as §1, §2

CC(C)Cc1ccc([C@H](CF)C(=O)O)cc1 [(S)-F-ibuprofen]
Gastric damage (in words) [1]: low gastric damage

O=C1N/C(=N\c2nnc(C34CC5CC(CC(C5)C3)C4)s2)S/C1=C\c1ccccc1 [Compound 1]
inhibition in vivo at 28 µmol/kg [2]: 40.8 ± 1.9%

O=C1N/C(=N\c2nnc(C34CC5CC(CC(C5)C3)C4)s2)S/C1=C\c1ccc(F)cc1 [Compound 2]
inhibition in vivo at 28 µmol/kg [2]: 39.7 ± 1.6%

O=C1NC(=Nc2nnc(C34CC5CC(CC(C5)C3)C4)s2)SC1=Cc1ccc(Br)cc1 [Compound 3]
COX-1 Inhibition, Inhibition (%) 200 μΜ (ovine COX-1): 100% | IC50 (ovine COX-1): 1.08 µM and 1.12 µM | Cell growth by comparison with the control (untreated cells) (MRC-5 cells): ≥ 98% | Enzymatic inhibition against LOX (in words) (soybean LOX): modest enzymatic inhibition | LOX Inhibition (%) 100 μΜ (soybean LOX): 42.9 ± 1.9 % | Number of Animals with Ulcer (gastric mucosa): nil | COX-2 Inhibition, Inhibition (%) 200 μΜ (human recombinant COX-2): 0% | inhibition in vivo at 28 µmol/kg [2]: 62% | Edema Inhibition, (%) [2]: 62.0 ± 1.8 %

O=C1NC(=Nc2nnc(C34CC5CC(CC(C5)C3)C4)s2)SC1=Cc1ccc([N+](=O)[O-])cc1 [Compound 4]
COX-1 Inhibition, Inhibition (%) 200 μΜ (ovine COX-1): 100% | IC50 (ovine COX-1): 1.12 µM and 1.08 µM | Cell growth by comparison with the control (untreated cells) (MRC-5 cells): ≥ 98% | Enzymatic inhibition against LOX (in words) (soybean LOX): modest enzymatic inhibition | LOX Inhibition (%) 100 μΜ (soybean LOX): 39.8 ± 181 % | Number of Animals with Ulcer (gastric mucosa): nil | COX-2 Inhibition, Inhibition (%) 200 μΜ (human recombinant COX-2): 0% | inhibition in vivo at 28 µmol/kg [2]: 66.7% | Edema Inhibition, (%) [2]: 66.7 ± 2.1 %

Cc1ccc(/C=C2\S/C(=N/c3nnc(C45CC6CC(CC(C6)C4)C5)s3)NC2=O)cc1 [Compound 5]
inhibition in vivo at 28 µmol/kg [2]: 47.2 ± 1.2%

COc1ccc(/C=C2\S/C(=N/c3nnc(C45CC6CC(CC(C6)C4)C5)s3)NC2=O)cc1 [Compound 6]
inhibition in vivo at 28 µmol/kg [2]: 37 ± 1.6%

CN(C)c1ccc(/C=C2\S/C(=N/c3nnc(C45CC6CC(CC(C6)C4)C5)s3)NC2=O)cc1 [Compound 7]
inhibition in vivo at 28 µmol/kg [2]: 43.6 ± 1.3%

O=C1N/C(=N\c2nnc(C34CC5CC(CC(C5)C3)C4)s2)S/C1=C\c1ccccc1[N+](=O)[O-] [Compound 8]
inhibition in vivo at 28 µmol/kg [2]: 37 ± 1.4%

O=C1N/C(=N\c2nnc(C34CC5CC(CC(C5)C3)C4)s2)S/C1=C\c1cccc([N+](=O)[O-])c1 [Compound 9]
inhibition in vivo at 28 µmol/kg [2]: 41.9 ± 1.8%

O=C1NC(=Nc2nnc(C34CC5CC(CC(C5)C3)C4)s2)SC1=Cc1cccc(F)c1F [Compound 10, 2-{[5-(Adamantan-1-yl)-1,3,4-thiadiazol-2-yl]-imino}-5-(2,3-difluorobenzylidene)-1,3-thiazolidin-4-one]
Cell growth by comparison with the control (untreated cells) (MRC-5 cells): ≥ 98% | inhibition in vivo at 28 µmol/kg [2]: 55.8% | Edema Inhibition, (%) [2]: 55.8 ± 1.9 %

O=C1N/C(=N\c2nnc(C34CC5CC(CC(C5)C3)C4)s2)S/C1=C\c1c(F)cccc1F [Compound 11]
Cell growth by comparison with the control (untreated cells) (MRC-5 cells): ≥ 98% | inhibition in vivo at 28 µmol/kg [2]: 60%

O=C1N/C(=N\c2nnc(C34CC5CC(CC(C5)C3)C4)s2)S/C1=C\c1cccc(Cl)c1Cl [Compound 12]
inhibition in vivo at 28 µmol/kg [2]: 34.5 ± 1.1%

O=C1N/C(=N\c2nnc(C34CC5CC(CC(C5)C3)C4)s2)S/C1=C\c1ccc(Cl)cc1Cl [Compound 13]
inhibition in vivo at 28 µmol/kg [2]: 36 ± 1.8%

O=C1NC(=Nc2nnc(C34CC5CC(CC(C5)C3)C4)s2)SC1=Cc1c(Cl)cccc1Cl [Compound 14]
COX-1 Inhibition, Inhibition (%) 200 μΜ (ovine COX-1): 100% | IC50 (ovine COX-1): 9.62 ± 0.5 µM | Cell growth by comparison with the control (untreated cells) (MRC-5 cells): ≥ 98% | Enzymatic inhibition against LOX (in words) (soybean LOX): modest enzymatic inhibition | LOX Inhibition (%) 100 μΜ (soybean LOX): 34.5 ± 1.6 % | Number of Animals with Ulcer (gastric mucosa): nil | COX-2 Inhibition, Inhibition (%) 200 μΜ (human recombinant COX-2): 0% | inhibition in vivo at 28 µmol/kg [2]: 60 ± 1.9%

COc1cc(/C=C2\S/C(=N/c3nnc(C45CC6CC(CC(C6)C4)C5)s3)NC2=O)ccc1O [Compound 15]
inhibition in vivo at 28 µmol/kg [2]: 21.4% | Edema Inhibition, (%) [2]: 21.4 ± 2.1 %

Cc1onc(-c2ccc(Cl)o2)c1-c1ccccc1 [Compound P6]
Gastric toxicity (in words) [1]: devoid of any gastric toxicity

COc1ccc(-c2nc(C(=O)N3CCN(C)CC3)sc2-c2ccc(OC)cc2)cc1 [FR122047]
Gastric toxicity (in words) [1]: devoid of any gastric toxicity

COc1ccc2c(c1)c(CC(=O)O)c(C)n2C(=O)c1ccc(Cl)cc1 [Indomethacin, reference compound]
Number of Animals with Ulcer (gastric mucosa): 4/5 | Number of Animals with Ulcer (gastric mucosa; listed as indomethacin): four out of five

COc1ccc(-c2noc(CC(=O)O)c2-c2ccc(OC)cc2)cc1 [Mofezolac]
Ulcer index ([1]; dose of 10 mg): 0.98

COc1ccc2c(c1)c(CC(=O)O)c(C)n2C1CCN(C)CC1 [N-methylpiperidinylindole]
Gastric toxicity (in words) ([1]; in vivo): devoid of any gastric toxicity

COc1ccc2cc([C@H](C)C(=O)O)ccc2c1 [Naproxen, reference compound]
COX-2 Inhibition, Inhibition (%) 200 μΜ (human recombinant COX-2): 17.0 ± 2.3 %

COc1ccc(-n2nc(C(F)(F)F)cc2-c2ccc(Cl)cc2)cc1 [SC-560]
Gastric toxicity (in words) [1]: devoid of any gastric toxicity

Nc1ccc(NC(=O)c2ccc(C(F)(F)F)cc2)cc1 [TFAP]
Gastric toxicity (in words) ([1]; in vivo): devoid of any gastric toxicity

COc1ccc(-c2nc(NCC(=O)O)sc2-c2ccc(OC)cc2)cc1 [diarylthiazole]
Gastric damage (in words) [1]: low gastric damage
